# Key:
# Test in all cases: relative viability (nuclei count vs DMSO), 5 days (fraction); higher = more cells survive
# [1] = compound: CC1=C(C(=NN1)C)CC2=C(C3=C(S2)N(C(=O)N(C3=O)C)CC(C)C)C(=O)N4C[C@@H](CO4)O + Nc1nc2[nH]cc(CCc3ccc(C(=O)N[C@@H](CCC(=O)O)C(=O)O)cc3)c2c(=O)[nH]1 [Pemetrexed] (partner 0.2 µM)
# Procedure, shortened: (§1)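 Values are medians from duplicate plates. Each reflects relative viability, defined as the nuclei count of treated wells over that of vehicle wells. Lung cancer cell lines in 1536-well plates were pin-tool dosed one day after seeding with one drug alone or with a fixed anchor-drug dose plus five library-drug doses (not always all listed) in √10 steps, then fixed, stained and imaged at 4× after 5 days.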
# IDH-C35 + Trametinib = compound: Cc1ccccc1C(C(=O)NC1CCCCC1)N(C(=O)Cn1ccnc1C)c1cccc(F)c1 [IDH-C35] + CC(=O)Nc1cccc(-n2c(=O)n(C3CC3)c(=O)c3c(Nc4ccc(I)cc4F)n(C)c(=O)c(C)c32)c1 [Trametinib] (partner 0.02 µM)
# Procedure, shortened: as §1
# IDH-C35 + Foretinib = compound: Cc1ccccc1C(C(=O)NC1CCCCC1)N(C(=O)Cn1ccnc1C)c1cccc(F)c1 [IDH-C35] + COc1cc2c(Oc3ccc(NC(=O)C4(C(=O)Nc5ccc(F)cc5)CC4)cc3F)ccnc2cc1OCCCN1CCOCC1 [Foretinib] (partner 0.25 µM)
# Procedure, shortened: as §1
# IDH-C35 + Pemetrexed = compound: Cc1ccccc1C(C(=O)NC1CCCCC1)N(C(=O)Cn1ccnc1C)c1cccc(F)c1 [IDH-C35] + Nc1nc2[nH]cc(CCc3ccc(C(=O)N[C@@H](CCC(=O)O)C(=O)O)cc3)c2c(=O)[nH]1 [Pemetrexed] (partner 0.2 µM)
# Procedure, shortened: as §1
cell line,measurement,setting,value
NCI-H1755,relative viability,[1]; first compound 0.0025 µM,0.42
same,relative viability,[1]; first compound 0.007906 µM,0.424
same,relative viability,[1]; first compound 0.025 µM,0.424
same,relative viability,[1]; first compound 0.07906 µM,0.425
same,relative viability,[1]; first compound 0.25 µM,0.422
same,relative viability,IDH-C35 + Trametinib; first compound 0.08 µM,0.754
same,relative viability,IDH-C35 + Trametinib; first compound 0.253 µM,0.735
same,relative viability,IDH-C35 + Trametinib; first compound 0.8 µM,0.762
same,relative viability,IDH-C35 + Trametinib; first compound 2.53 µM,0.73
same,relative viability,IDH-C35 + Trametinib; first compound 8 µM,0.675
same,relative viability,IDH-C35 + Foretinib; first compound 0.08 µM,0.951
same,relative viability,IDH-C35 + Foretinib; first compound 0.253 µM,0.921
same,relative viability,IDH-C35 + Foretinib; first compound 0.8 µM,0.874
same,relative viability,IDH-C35 + Foretinib; first compound 2.53 µM,0.95
same,relative viability,IDH-C35 + Foretinib; first compound 8 µM,0.933
same,relative viability,IDH-C35 + Pemetrexed; first compound 0.08 µM,0.455
same,relative viability,IDH-C35 + Pemetrexed; first compound 0.253 µM,0.748
same,relative viability,IDH-C35 + Pemetrexed; first compound 0.8 µM,0.458
same,relative viability,IDH-C35 + Pemetrexed; first compound 2.53 µM,0.411
same,relative viability,IDH-C35 + Pemetrexed; first compound 8 µM,0.473
HCC-78,relative viability,[1]; first compound 0.0025 µM,0.904
same,relative viability,[1]; first compound 0.007906 µM,0.887
same,relative viability,[1]; first compound 0.025 µM,0.897
same,relative viability,[1]; first compound 0.07906 µM,0.951
same,relative viability,[1]; first compound 0.25 µM,0.925
same,relative viability,IDH-C35 + Trametinib; first compound 0.08 µM,0.757
same,relative viability,IDH-C35 + Trametinib; first compound 0.253 µM,0.869
same,relative viability,IDH-C35 + Trametinib; first compound 0.8 µM,0.777
same,relative viability,IDH-C35 + Trametinib; first compound 2.53 µM,0.713
same,relative viability,IDH-C35 + Trametinib; first compound 8 µM,0.761
same,relative viability,IDH-C35 + Foretinib; first compound 0.08 µM,0.586
same,relative viability,IDH-C35 + Foretinib; first compound 0.253 µM,0.57
same,relative viability,IDH-C35 + Foretinib; first compound 0.8 µM,0.563
same,relative viability,IDH-C35 + Foretinib; first compound 2.53 µM,0.555
same,relative viability,IDH-C35 + Foretinib; first compound 8 µM,0.525
same,relative viability,IDH-C35 + Pemetrexed; first compound 0.08 µM,0.918
same,relative viability,IDH-C35 + Pemetrexed; first compound 0.253 µM,0.918
same,relative viability,IDH-C35 + Pemetrexed; first compound 0.8 µM,0.897
same,relative viability,IDH-C35 + Pemetrexed; first compound 2.53 µM,0.912
same,relative viability,IDH-C35 + Pemetrexed; first compound 8 µM,0.943
LOU-NH91,relative viability,[1]; first compound 0.0025 µM,0.404
same,relative viability,[1]; first compound 0.007906 µM,0.362
same,relative viability,[1]; first compound 0.025 µM,0.402
same,relative viability,[1]; first compound 0.07906 µM,0.366
same,relative viability,[1]; first compound 0.25 µM,0.365
same,relative viability,IDH-C35 + Trametinib; first compound 0.08 µM,0.804
same,relative viability,IDH-C35 + Trametinib; first compound 0.253 µM,0.785
same,relative viability,IDH-C35 + Trametinib; first compound 0.8 µM,0.781
same,relative viability,IDH-C35 + Trametinib; first compound 2.53 µM,0.742
same,relative viability,IDH-C35 + Trametinib; first compound 8 µM,0.803
same,relative viability,IDH-C35 + Foretinib; first compound 0.08 µM,0.949
same,relative viability,IDH-C35 + Foretinib; first compound 0.253 µM,0.946
same,relative viability,IDH-C35 + Foretinib; first compound 0.8 µM,0.92
same,relative viability,IDH-C35 + Foretinib; first compound 2.53 µM,0.918
same,relative viability,IDH-C35 + Foretinib; first compound 8 µM,0.913
same,relative viability,IDH-C35 + Pemetrexed; first compound 0.08 µM,0.422
same,relative viability,IDH-C35 + Pemetrexed; first compound 0.253 µM,0.393
same,relative viability,IDH-C35 + Pemetrexed; first compound 0.8 µM,0.425
same,relative viability,IDH-C35 + Pemetrexed; first compound 2.53 µM,0.347
same,relative viability,IDH-C35 + Pemetrexed; first compound 8 µM,0.361
NCI-H3122,relative viability,[1]; first compound 0.0025 µM,0.196
same,relative viability,[1]; first compound 0.007906 µM,0.202
same,relative viability,[1]; first compound 0.025 µM,0.185
same,relative viability,[1]; first compound 0.07906 µM,0.187
same,relative viability,[1]; first compound 0.25 µM,0.216
same,relative viability,IDH-C35 + Trametinib; first compound 0.08 µM,0.22
same,relative viability,IDH-C35 + Trametinib; first compound 0.253 µM,0.249
same,relative viability,IDH-C35 + Trametinib; first compound 0.8 µM,0.21
same,relative viability,IDH-C35 + Trametinib; first compound 2.53 µM,0.236
same,relative viability,IDH-C35 + Trametinib; first compound 8 µM,0.212
same,relative viability,IDH-C35 + Foretinib; first compound 0.08 µM,0.919
same,relative viability,IDH-C35 + Foretinib; first compound 0.253 µM,0.984
same,relative viability,IDH-C35 + Foretinib; first compound 0.8 µM,0.915
same,relative viability,IDH-C35 + Foretinib; first compound 2.53 µM,0.928
same,relative viability,IDH-C35 + Foretinib; first compound 8 µM,0.958
same,relative viability,IDH-C35 + Pemetrexed; first compound 0.08 µM,0.203
same,relative viability,IDH-C35 + Pemetrexed; first compound 0.253 µM,0.182
same,relative viability,IDH-C35 + Pemetrexed; first compound 0.8 µM,0.203
same,relative viability,IDH-C35 + Pemetrexed; first compound 2.53 µM,0.207
same,relative viability,IDH-C35 + Pemetrexed; first compound 8 µM,0.2
HCC-827,relative viability,[1]; first compound 0.0025 µM,0.245
same,relative viability,[1]; first compound 0.007906 µM,0.27
same,relative viability,[1]; first compound 0.025 µM,0.272
same,relative viability,[1]; first compound 0.07906 µM,0.288
same,relative viability,[1]; first compound 0.25 µM,0.237
same,relative viability,IDH-C35 + Trametinib; first compound 0.08 µM,0.525
same,relative viability,IDH-C35 + Trametinib; first compound 0.253 µM,0.583
same,relative viability,IDH-C35 + Trametinib; first compound 0.8 µM,0.462
same,relative viability,IDH-C35 + Trametinib; first compound 2.53 µM,0.519
same,relative viability,IDH-C35 + Trametinib; first compound 8 µM,0.512
same,relative viability,IDH-C35 + Foretinib; first compound 0.08 µM,1.05
same,relative viability,IDH-C35 + Foretinib; first compound 0.253 µM,0.964
same,relative viability,IDH-C35 + Foretinib; first compound 0.8 µM,1.01
same,relative viability,IDH-C35 + Foretinib; first compound 2.53 µM,1.03
same,relative viability,IDH-C35 + Foretinib; first compound 8 µM,1.05
same,relative viability,IDH-C35 + Pemetrexed; first compound 0.08 µM,0.279
same,relative viability,IDH-C35 + Pemetrexed; first compound 0.253 µM,0.266
same,relative viability,IDH-C35 + Pemetrexed; first compound 0.8 µM,0.269
same,relative viability,IDH-C35 + Pemetrexed; first compound 2.53 µM,0.248
same,relative viability,IDH-C35 + Pemetrexed; first compound 8 µM,0.238
SK-LU-1,relative viability,[1]; first compound 0.0025 µM,0.96
same,relative viability,[1]; first compound 0.007906 µM,0.719
same,relative viability,[1]; first compound 0.025 µM,0.736
same,relative viability,[1]; first compound 0.07906 µM,0.745
same,relative viability,[1]; first compound 0.25 µM,0.846
same,relative viability,IDH-C35 + Trametinib; first compound 0.08 µM,0.454
same,relative viability,IDH-C35 + Trametinib; first compound 0.253 µM,0.489
same,relative viability,IDH-C35 + Trametinib; first compound 0.8 µM,0.507
same,relative viability,IDH-C35 + Trametinib; first compound 2.53 µM,0.485
same,relative viability,IDH-C35 + Trametinib; first compound 8 µM,0.536
same,relative viability,IDH-C35 + Foretinib; first compound 0.08 µM,0.833
same,relative viability,IDH-C35 + Foretinib; first compound 0.253 µM,0.839
same,relative viability,IDH-C35 + Foretinib; first compound 0.8 µM,0.87
same,relative viability,IDH-C35 + Foretinib; first compound 2.53 µM,0.878
same,relative viability,IDH-C35 + Foretinib; first compound 8 µM,0.901
same,relative viability,IDH-C35 + Pemetrexed; first compound 0.08 µM,1.06
same,relative viability,IDH-C35 + Pemetrexed; first compound 0.253 µM,0.983
same,relative viability,IDH-C35 + Pemetrexed; first compound 0.8 µM,1.03
same,relative viability,IDH-C35 + Pemetrexed; first compound 2.53 µM,1.05
same,relative viability,IDH-C35 + Pemetrexed; first compound 8 µM,0.887
NCI-H1975,relative viability,[1]; first compound 0.0025 µM,0.317
same,relative viability,[1]; first compound 0.007906 µM,0.297
same,relative viability,[1]; first compound 0.025 µM,0.283
same,relative viability,[1]; first compound 0.07906 µM,0.268
same,relative viability,[1]; first compound 0.25 µM,0.287
same,relative viability,IDH-C35 + Trametinib; first compound 0.08 µM,0.384
same,relative viability,IDH-C35 + Trametinib; first compound 0.253 µM,0.363
same,relative viability,IDH-C35 + Trametinib; first compound 0.8 µM,0.323
same,relative viability,IDH-C35 + Trametinib; first compound 2.53 µM,0.345
same,relative viability,IDH-C35 + Trametinib; first compound 8 µM,0.32
same,relative viability,IDH-C35 + Foretinib; first compound 0.08 µM,0.938
same,relative viability,IDH-C35 + Foretinib; first compound 0.253 µM,0.951
same,relative viability,IDH-C35 + Foretinib; first compound 0.8 µM,1.01
same,relative viability,IDH-C35 + Foretinib; first compound 2.53 µM,0.974
same,relative viability,IDH-C35 + Foretinib; first compound 8 µM,0.862
same,relative viability,IDH-C35 + Pemetrexed; first compound 0.08 µM,0.284
same,relative viability,IDH-C35 + Pemetrexed; first compound 0.253 µM,0.284
same,relative viability,IDH-C35 + Pemetrexed; first compound 0.8 µM,0.281
same,relative viability,IDH-C35 + Pemetrexed; first compound 2.53 µM,0.288
same,relative viability,IDH-C35 + Pemetrexed; first compound 8 µM,0.32

# Source: the supplement of paper PMC10307832
